Data published in patent US20240067668A1, “HETEROARYL DERIVATIVE COMPOUND AND USE THEREOF” (VORONOI INC., priority 2020, published 2024).

What was measured:
EGFR (E746-A750del) = target: T1, EGFR (E746-A750del) (Homo sapiens, UniProt P00533, DEL746-750); assay: scanMAX Kinase analysis panel (DiscoverX), control percentage; format: binding; details: 1 μM in DMSO
T1 construct: purchased DiscoverX
Protocol: (§1) The following experiments were performed to evaluate the inhibitory activity of compounds according to the present invention against various enzymes. Specifically, with respect to the compound of Example 2 selected from the Example Compounds of the present invention, the enzyme (kinase) selectivity was measured by requesting DiscoverX company, and the experiment was conducted using a scanMAX™ Kinase analysis panel. Here, the concentration of the drug treated with the enzyme was 1 μM in DMSO, and the control percentage (% control) was determined by the following Equation 1.
(§2) (Example Compound−positive control)/(negative control−positive control)×100 [Equation 1]
(§3) Here, the positive control indicates a compound showing the control percentage of 0%, and the negative control indicates DMSO showing the control percentage of 100%. Further, regarding the enzyme selectivity of the present invention, when the control percentage for each enzyme was <30% (i.e., less than 30%), the compound was determined to have the activity against the corresponding enzyme.

EGFR (G719C) = target: T2, EGFR (G719C) (Homo sapiens, UniProt P00533, G719C); assay: as above; format: binding; details: 1 μM in DMSO
T2 construct: purchased DiscoverX
Protocol: as §1, §2, §3

EGFR (G719S) = target: T3, EGFR (G719S) (Homo sapiens, UniProt P00533, G719S); assay: as above; format: binding; details: 1 μM in DMSO
T3 construct: purchased DiscoverX
Protocol: as §1, §2, §3

EGFR = target: T4, EGFR (Homo sapiens, UniProt P00533); assay: as above; format: binding; details: 1 μM in DMSO
T4 construct: purchased DiscoverX
Protocol: as §1, §2, §3

[1] = target: T5, EGFR (L747-E749del, A750P) (Homo sapiens, UniProt P00533, A750P/DEL747-749); assay: as above; format: binding; details: 1 μM in DMSO
T5 construct: purchased DiscoverX
T5 sequence (P00533 with tags, fused parts or gaps DEL747-749/A750P): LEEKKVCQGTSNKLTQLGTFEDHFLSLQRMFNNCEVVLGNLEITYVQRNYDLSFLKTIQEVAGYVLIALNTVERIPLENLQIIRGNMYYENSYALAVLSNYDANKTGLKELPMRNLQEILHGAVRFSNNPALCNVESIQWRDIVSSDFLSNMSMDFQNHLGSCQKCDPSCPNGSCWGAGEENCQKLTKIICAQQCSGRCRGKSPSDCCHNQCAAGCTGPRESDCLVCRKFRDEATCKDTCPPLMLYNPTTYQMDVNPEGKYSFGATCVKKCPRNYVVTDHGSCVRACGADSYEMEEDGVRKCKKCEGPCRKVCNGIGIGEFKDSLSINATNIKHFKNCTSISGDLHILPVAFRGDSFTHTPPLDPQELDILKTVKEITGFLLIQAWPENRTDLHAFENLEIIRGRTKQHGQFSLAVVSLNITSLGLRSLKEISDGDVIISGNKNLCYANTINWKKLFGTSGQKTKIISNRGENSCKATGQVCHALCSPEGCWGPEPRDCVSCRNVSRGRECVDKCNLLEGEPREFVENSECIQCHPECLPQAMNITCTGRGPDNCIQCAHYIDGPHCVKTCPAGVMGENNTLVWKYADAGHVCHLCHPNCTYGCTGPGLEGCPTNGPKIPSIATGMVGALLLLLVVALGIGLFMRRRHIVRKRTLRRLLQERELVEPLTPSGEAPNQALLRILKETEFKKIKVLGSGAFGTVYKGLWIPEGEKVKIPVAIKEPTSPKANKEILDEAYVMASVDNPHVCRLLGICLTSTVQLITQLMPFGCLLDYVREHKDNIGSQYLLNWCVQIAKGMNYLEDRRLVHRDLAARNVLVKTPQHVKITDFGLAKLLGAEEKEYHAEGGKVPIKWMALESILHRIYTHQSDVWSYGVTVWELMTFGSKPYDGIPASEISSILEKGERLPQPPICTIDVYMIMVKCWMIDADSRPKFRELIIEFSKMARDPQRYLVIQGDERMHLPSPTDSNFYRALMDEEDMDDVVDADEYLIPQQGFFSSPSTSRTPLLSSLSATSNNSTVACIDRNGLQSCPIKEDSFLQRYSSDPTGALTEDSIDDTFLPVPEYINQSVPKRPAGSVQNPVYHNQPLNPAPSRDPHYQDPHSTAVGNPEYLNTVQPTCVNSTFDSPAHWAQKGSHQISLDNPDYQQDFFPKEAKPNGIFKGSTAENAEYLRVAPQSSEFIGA
Protocol: as §1, §2, §3

[2] = target: T6, EGFR (L747-S752del, P753S) (Homo sapiens, UniProt P00533, DEL747-752/P753S); assay: as above; format: binding; details: 1 μM in DMSO
T6 construct: purchased DiscoverX
T6 sequence (P00533 with tags, fused parts or gaps DEL747-752/P753S): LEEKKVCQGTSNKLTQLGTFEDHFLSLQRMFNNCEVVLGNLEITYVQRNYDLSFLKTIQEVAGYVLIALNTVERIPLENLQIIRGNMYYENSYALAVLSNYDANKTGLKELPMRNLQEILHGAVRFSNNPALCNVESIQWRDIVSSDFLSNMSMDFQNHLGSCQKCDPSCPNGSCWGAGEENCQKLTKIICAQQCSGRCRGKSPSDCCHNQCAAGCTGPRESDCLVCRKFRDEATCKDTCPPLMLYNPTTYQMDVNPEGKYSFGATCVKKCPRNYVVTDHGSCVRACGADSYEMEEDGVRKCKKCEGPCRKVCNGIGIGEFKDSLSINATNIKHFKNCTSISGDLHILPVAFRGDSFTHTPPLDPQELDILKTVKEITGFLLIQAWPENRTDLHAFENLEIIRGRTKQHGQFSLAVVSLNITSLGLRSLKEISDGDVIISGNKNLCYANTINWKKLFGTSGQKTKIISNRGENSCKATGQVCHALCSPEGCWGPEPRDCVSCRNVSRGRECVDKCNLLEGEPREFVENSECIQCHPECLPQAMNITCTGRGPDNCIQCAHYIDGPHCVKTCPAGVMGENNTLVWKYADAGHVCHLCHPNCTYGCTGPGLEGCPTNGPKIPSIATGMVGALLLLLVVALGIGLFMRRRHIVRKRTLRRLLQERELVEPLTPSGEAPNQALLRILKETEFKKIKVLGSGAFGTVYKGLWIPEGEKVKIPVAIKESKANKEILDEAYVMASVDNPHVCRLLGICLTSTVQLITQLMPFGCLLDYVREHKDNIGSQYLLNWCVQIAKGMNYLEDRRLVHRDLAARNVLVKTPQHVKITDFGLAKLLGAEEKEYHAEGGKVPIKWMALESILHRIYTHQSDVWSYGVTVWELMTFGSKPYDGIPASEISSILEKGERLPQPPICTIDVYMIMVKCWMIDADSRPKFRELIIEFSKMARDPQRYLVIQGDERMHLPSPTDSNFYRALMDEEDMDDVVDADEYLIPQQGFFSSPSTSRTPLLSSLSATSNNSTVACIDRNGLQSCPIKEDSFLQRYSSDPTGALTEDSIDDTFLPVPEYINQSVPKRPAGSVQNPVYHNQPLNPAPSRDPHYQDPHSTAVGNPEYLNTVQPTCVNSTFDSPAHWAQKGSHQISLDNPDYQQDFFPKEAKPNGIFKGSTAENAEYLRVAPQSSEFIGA
Protocol: as §1, §2, §3

[3] = system: EGFR (L747-T751del, Sins); assay: as above; format: binding; details: 1 μM in DMSO
Protocol: as §1, §2, §3

EGFR (L858R) = target: T7, EGFR (L858R) (Homo sapiens, UniProt P00533, L858R); assay: as above; format: binding; details: 1 μM in DMSO
T7 construct: purchased DiscoverX
Protocol: as §1, §2, §3

EGFR (L858R, T790M) = target: T8, EGFR (L858R, T790M) (Homo sapiens, UniProt P00533, L858R/T790M); assay: as above; format: binding; details: 1 μM in DMSO
T8 construct: purchased DiscoverX
Protocol: as §1, §2, §3

EGFR (L861Q) = target: T9, EGFR (L861Q) (Homo sapiens, UniProt P00533, L861Q); assay: as above; format: binding; details: 1 μM in DMSO
T9 construct: purchased DiscoverX
Protocol: as §1, §2, §3

EGFR (T790M) = target: T10, EGFR (T790M) (Homo sapiens, UniProt P00533, T790M); assay: as above; format: binding; details: 1 μM in DMSO
T10 construct: purchased DiscoverX
Protocol: as §1, §2, §3

EGFR(S752-I759del) = target: T11, EGFR(S752-I759del) (Homo sapiens, UniProt P00533, DEL752-759); assay: as above; format: binding; details: 1 μM in DMSO
T11 construct: purchased DiscoverX
Protocol: as §1, §2, §3

EGFR Del19/T790M/C797S = EGFR Del19/T790M/C797S (Homo sapiens, UniProt P00533, C797S/T790M, form not given); assay: Enzyme IC50, EGFR Del19/T790M/C797S; format: biochemical
Sequence of EGFR Del19/T790M/C797S (P00533 25-1210 T790M/C797S, form open): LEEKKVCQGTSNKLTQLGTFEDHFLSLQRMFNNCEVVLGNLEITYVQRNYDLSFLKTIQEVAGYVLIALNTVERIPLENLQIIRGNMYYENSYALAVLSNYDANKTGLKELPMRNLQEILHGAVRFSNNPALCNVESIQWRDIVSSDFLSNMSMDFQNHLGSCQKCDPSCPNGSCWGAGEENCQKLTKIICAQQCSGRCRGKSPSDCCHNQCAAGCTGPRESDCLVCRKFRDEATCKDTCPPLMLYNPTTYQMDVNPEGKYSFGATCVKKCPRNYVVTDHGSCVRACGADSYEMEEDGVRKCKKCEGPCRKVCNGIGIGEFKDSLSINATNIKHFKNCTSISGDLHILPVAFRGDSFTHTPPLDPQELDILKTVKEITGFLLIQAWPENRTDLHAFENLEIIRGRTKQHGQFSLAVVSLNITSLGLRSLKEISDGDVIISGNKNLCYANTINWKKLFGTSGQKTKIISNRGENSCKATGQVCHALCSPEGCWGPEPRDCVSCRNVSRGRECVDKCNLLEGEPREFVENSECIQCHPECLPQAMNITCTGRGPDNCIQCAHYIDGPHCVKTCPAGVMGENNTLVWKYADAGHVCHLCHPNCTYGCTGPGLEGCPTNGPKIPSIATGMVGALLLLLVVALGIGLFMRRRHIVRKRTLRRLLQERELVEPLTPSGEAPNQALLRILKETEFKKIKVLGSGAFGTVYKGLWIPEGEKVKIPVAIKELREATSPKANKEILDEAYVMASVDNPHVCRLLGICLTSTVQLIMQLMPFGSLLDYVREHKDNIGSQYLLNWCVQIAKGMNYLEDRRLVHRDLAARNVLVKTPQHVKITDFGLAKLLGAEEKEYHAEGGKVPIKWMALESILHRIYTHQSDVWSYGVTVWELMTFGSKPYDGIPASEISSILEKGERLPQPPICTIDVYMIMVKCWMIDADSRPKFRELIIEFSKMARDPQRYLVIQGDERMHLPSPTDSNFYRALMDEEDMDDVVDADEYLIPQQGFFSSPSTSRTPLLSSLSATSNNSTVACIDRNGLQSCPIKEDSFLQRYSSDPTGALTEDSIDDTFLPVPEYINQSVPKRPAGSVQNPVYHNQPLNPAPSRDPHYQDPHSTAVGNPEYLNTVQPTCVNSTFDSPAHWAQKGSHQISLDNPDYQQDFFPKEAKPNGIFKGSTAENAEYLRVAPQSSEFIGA

[4] = system: BaF3-EGFR (Del19/T790M/C797S) cells; assay: Inhibitory activity on Ba/F3 cell proliferation (CellTiter-Glo, 72 hours); format: cell-based; details: Ba/F3 cells expressing EGFR Del19/T790M/C797S
How it was run: (§4)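 Ba/F3 cells expressing wild-type EGFR or EGFR Del19/T790M/C797S, 3×10^3 per well, exposed 72 h at 37 °C to compound at 12 threefold dilutions, 0.00005-10 μM final. Viability by CellTiter-Glo 2.0; GI50 derived from growth relative to DMSO-treated cells.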

BaF3-EGFR (WT) cells = assay: as above; format: cell-based; details: Ba/F3 cells expressing EGFR WT
How it was run: as §4

T1 sequence (P00533 with tags, fused parts or gaps DEL746-750): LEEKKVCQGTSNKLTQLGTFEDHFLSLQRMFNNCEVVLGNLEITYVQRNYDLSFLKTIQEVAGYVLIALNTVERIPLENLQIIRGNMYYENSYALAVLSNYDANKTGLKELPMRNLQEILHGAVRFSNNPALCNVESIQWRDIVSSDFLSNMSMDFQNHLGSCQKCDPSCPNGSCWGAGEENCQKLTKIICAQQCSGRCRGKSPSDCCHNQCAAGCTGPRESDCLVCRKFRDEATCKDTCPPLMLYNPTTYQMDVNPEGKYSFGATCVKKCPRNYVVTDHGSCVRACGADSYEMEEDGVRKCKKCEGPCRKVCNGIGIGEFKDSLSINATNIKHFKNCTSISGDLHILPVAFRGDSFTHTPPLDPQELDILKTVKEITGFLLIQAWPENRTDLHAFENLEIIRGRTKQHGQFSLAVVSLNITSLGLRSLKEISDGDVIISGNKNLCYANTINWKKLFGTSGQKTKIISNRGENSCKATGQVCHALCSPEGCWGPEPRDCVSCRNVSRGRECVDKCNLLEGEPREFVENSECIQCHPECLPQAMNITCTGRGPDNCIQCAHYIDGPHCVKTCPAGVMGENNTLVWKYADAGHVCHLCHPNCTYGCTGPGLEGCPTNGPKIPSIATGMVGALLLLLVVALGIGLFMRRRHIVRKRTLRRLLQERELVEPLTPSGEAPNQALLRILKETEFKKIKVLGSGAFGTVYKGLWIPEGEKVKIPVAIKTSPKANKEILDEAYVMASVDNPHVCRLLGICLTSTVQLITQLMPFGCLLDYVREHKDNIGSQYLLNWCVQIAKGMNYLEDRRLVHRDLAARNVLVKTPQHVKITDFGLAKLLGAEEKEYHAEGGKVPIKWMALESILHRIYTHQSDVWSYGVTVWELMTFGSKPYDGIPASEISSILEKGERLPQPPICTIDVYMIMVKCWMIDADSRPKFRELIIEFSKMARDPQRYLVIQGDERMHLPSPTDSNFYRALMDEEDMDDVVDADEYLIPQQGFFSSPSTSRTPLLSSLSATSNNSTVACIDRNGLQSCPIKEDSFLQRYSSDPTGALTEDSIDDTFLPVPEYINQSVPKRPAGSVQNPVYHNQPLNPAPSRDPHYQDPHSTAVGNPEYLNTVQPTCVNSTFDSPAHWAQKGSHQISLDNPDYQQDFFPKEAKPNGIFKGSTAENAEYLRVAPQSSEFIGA

Row | SMILES | IC50 (EGFR Del19/T790M/C797S) | GI50 [4] | GI50 (BaF3-EGFR (WT) cells) | remaining binding at 1 µM (EGFR (E746-A750del)) | remaining binding at 1 µM (EGFR (G719C)) | remaining binding at 1 µM (EGFR (G719S)) | remaining binding at 1 µM (EGFR) | remaining binding at 1 µM [1] | remaining binding at 1 µM [2] | control percentage (% control) [3] | remaining binding at 1 µM (EGFR (L858R)) | remaining binding at 1 µM (EGFR (L858R, T790M)) | remaining binding at 1 µM (EGFR (L861Q)) | remaining binding at 1 µM (EGFR (T790M)) | remaining binding at 1 µM (EGFR(S752-I759del))
1 | COc1cc(N2CCC(N3CCN(C)CC3)CC2)c(C)cc1Nc1nc(Nc2ccc3nccnc3c2P(C)(C)=O)c2cc[nH]c2n1 [Example 54, (6-((2-((2-methoxy-5-methyl-4-(4-(4-methyl-piperazin-1-yl)piperidin-1-yl)phenyl)amino)-7H-pyrrolo[2,3-d]pyrimidin-4-yl)amino)quinoxalin-5-yl)dimethyl-phosphine oxide] | ≤ 0.05 µM | ≤ 0.05 µM | > 0.1 µM | < 30% | < 30% | < 30% | < 30% | < 30% | < 30% | < 30% | < 30% | < 30% | < 30% | < 30% | < 30%
2 | COc1cc(N2CCN(C)CC2)c(-c2ccoc2)cc1Nc1nc(Nc2ccc3nccnc3c2P(C)(C)=O)c2cc[nH]c2n1 [Example 75, (6-((2-((5-(furan-3-yl)-2-methoxy-4-(4-methylpiperazin-1-yl)phenyl)amino)-7H-pyrrolo[2,3-d]pyrimidin-4-yl)amino)quinoxalin-5-yl)dimethyl-phosphine oxide] | ≤ 0.05 µM | > 0.1 µM | > 0.1 µM | – | – | – | – | – | – | – | – | – | – | – | –
3 | Cc1cn(-c2cc(Nc3nc(Nc4ccc5nccnc5c4P(C)(C)=O)c4cc[nH]c4n3)cc(C(F)(F)F)c2)cn1 [Example 106, dimethyl (6-((2-((3-(4-methyl-1H-imidazol-1-yl)-5-(trifluoromethyl)phenyl)amino)-7H-pyrrolo[2,3-d]pyrimidin-4-yl)amino)quinoxalin-5-yl)phosphine oxide] | ≤ 0.05 µM | > 0.1 µM | > 0.1 µM | – | – | – | – | – | – | – | – | – | – | – | –

Continued, in another order:

Row | IC50 (EGFR Del19/T790M/C797S) | GI50 [4] | GI50 (BaF3-EGFR (WT) cells) | SMILES | remaining binding at 1 µM (EGFR (E746-A750del)) | remaining binding at 1 µM (EGFR (G719C)) | remaining binding at 1 µM (EGFR (G719S)) | remaining binding at 1 µM (EGFR) | remaining binding at 1 µM [1] | remaining binding at 1 µM [2] | control percentage (% control) [3] | remaining binding at 1 µM (EGFR (L858R)) | remaining binding at 1 µM (EGFR (L858R, T790M)) | remaining binding at 1 µM (EGFR (L861Q)) | remaining binding at 1 µM (EGFR (T790M)) | remaining binding at 1 µM (EGFR(S752-I759del))
4 | ≤ 0.05 µM | ≤ 0.05 µM | > 0.1 µM | COc1cc(N2CCC3(CCN(CC4(F)CC4)CC3)CC2)c(-c2cnn(C)c2)cc1Nc1nc(Nc2ccc3nccnc3c2P(C)(C)=O)c2cc[nH]c2n1 [Example 114, (6-((2-((4-(9-((1-fluorocyclo-propyl)methyl)-3,9-diazaspiro[5.5]undecan-3-yl)-2-methoxy-5-(1-methyl-1H-pyrazol-4-yl)phenyl)amino)-7H-pyrrolo[2,3-d]pyrimidin-4-yl)amino)quinoxalin-5-yl)dimethyl-phosphine oxide] | – | – | – | – | – | – | – | – | – | – | – | –
5 | ≤ 0.05 µM | ≤ 0.05 µM | > 0.1 µM | CCc1cc(Nc2nc(Nc3ccc4nccnc4c3P(C)(C)=O)c3cc[nH]c3n2)c(OC)cc1N1CCC(N2CCN(C)CC2)CC1 [Example 55, (6-((2-((5-ethyl-2-methoxy-4-(4-(4-methylpiperazin-1-yl)piperidin-1-yl)phenyl)amino)-7H-pyrrolo[2,3-d]pyrimidin-4-yl)amino)quinoxalin-5-yl)dimethyl-phosphine oxide] | – | – | – | – | – | – | – | – | – | – | – | –
